One compound from article PMC8201173, “Inhibition of Carbonic Anhydrase IX Promotes Apoptosis through Intracellular pH Level Alterations in Cervical Cancer Cells” (International Journal of Molecular Sciences, 2021) can be followed below.

Data set [1] relates to HeLa cells. Briefly: Western blot of apoptotic proteins and CAIX. Type of data set: cell-based. As to conditions: 24 h. How it is done: The cells were seeded on 6 cm^2 cell culture dishes and treated with the compound E at doses of 10–25–50 μM, for 24 h. The cells were then washed by cold PBS, which was followed by lysis with RIPA lysis tampon (10 mM Tris-HC1 pH:8.1 mM EDTA, 1 mM EGTA, 140 mM NaCl, 1% TritonX-100, 0.1 SDS, 0.1% Sodium deoxycholate), 1X phosphates, and protease inhibitor (Santa Cruz, Heidelberg, Germany). Acquired supernatant was centrifuged at 12,000× g for 10 min and transferred to new tubes. Protein concentration was detected using the protein assay kit BCA (Thermo Fisher Scientific, MA, USA). Following protein (50 µg) standing in 10% SDS-PAGE gel at 50 V for 30 min and 80 V for 3 h, the proteins were blotted to PVDF membrane at 70 V for 5 min (Bio-Rad Turbo Transfer System). After blocking in 1X TBST (12.1 gr Tris, pH 7.5, 70 gr NaCl, %0.1 Tween-20) containing 5% dry milk or 5% BSA, the primer monoclonal antibodies shown in Table 3 were administrated to the membrane overnight, which was followed by washing with 1 X TBS-T and incubation period with secondary antibodies HRP rabbit or mouse (1/10.000) for 60 min. The membrane was washed with 1 X TBS-T again. For band imaging, ECL substrate (EMD Millipore Corp., MA, USA) was used in the imaging system (LI-COR Odyssey Fc, NE, USA).

Data set [2] deals with HeLa cells. The experiment in a line: Mitochondrial membrane potential (JC-1). The class given is cell-based. The settings on record: JC-1 dye. The protocol:
Mitochondrial membrane potential (MMP) changes were spectrophotometrically detected. MMP was measured in a fluorometry device (Spectramax M5, BioTek, VT, USA) at wavelengths of 490 nm (excitation) and 530 nm (emission) in suitable conditions according to the manufacturer protocol (Sigma-Aldrich-CS0390, Germany).

Data set [3] has as its system HeLa cells. The experiment in a line: Intracellular ROS detection (ROS Deep Red). The class given is cell-based. As to conditions: ROS red dye, 0–200 μM, 1 h. The protocol:
Intracellular free radicals were measured using the Cellular Reactive Oxygen Species Detection Assay commercial kit (Abcam-186027, Cambridge, UK). In this kit, a fluorescence probe that is permeable to cells was used. When the probe reacts with ROS, it produces red fluorescence. According to the kit protocol, the cells were planted in black plates and incubated for 24 h. The compound E in PBS was administered at doses of 0–200 μM and incubated at 37 °C within an atmosphere of 5 % CO2 for 1 h (protected from light). After the compound E was poured out, the wells were filled with 100 µL of ROS Deep Red Working Solution, and then they were incubated at 37°C under an atmosphere of 5 % CO2 for 1 h. A fluorometry device (Spectramax M5, BioTek, VT, USA) Ex/Em: 650/675 nm (cut off: 665 nm) was used for the measuring.

The test system of data set [4] is HeLa cells. The experiment in a line: BrdU ELISA proliferation assay. The class given is cell-based. As to conditions: 2.5 to 200 μM, 72 h. The protocol: The effects of compound E on the proliferation of HeLa cells were investigated by a commercial proliferation kit BrDU (BioVision, CA, USA) according to the protocols of the manufacturer. Twenty-four hours later, the cells were planted in 96 well plates (10^4 cell/mL), the medium was replaced, and the substance was administrated at a range from 2.5 to 200 μM for 72 h. Subsequently, the media were […], after which 100 µL 1X of BrdU reactive was added; then, they were placed in an incubator that contained % 5 CO2, 95% fresh air, at 37 °C, for 4 h. The medium was then removed, and 100 μL of fixative/denaturation solution was added and incubated for 30 min. A total of 100 µL 1X of the antibody solution BrdU was added, following 1-h incubation, the solution washed by 300 µL 1X of the washing solution two times. A volume of 100 μL 1X of anti-mouse HRP-linked antibody was added and incubated at room temperature for 1 h. Then, the cells were washed with 300 µL 1X of washing solution. Final incubation was performed by 100 μL of TMB substrate solution for 5 min, after which the stop solution was added; consequently, reading at a wavelength of 450 nm was performed.

Data set [5] relates to HeLa cells. The experiment in a line: WST-1 cytotoxicity assay, HeLa. Type of data set: cell-based. The settings on record: Homo sapiens. The protocol:
We used cancer and normal cell lines purchased from ATCC (American Type Culture Collection) and ECACC (European Collection of Authenticated Cell Cultures) and stored in liquid nitrogen.
The cells were planted in 96 well plates (10^4 cells per well). […] WST-1 reactive of 10 µL was added in all wells. Following 4 h incubation, the measurements were carried out in a plate reader (Spectramax M5, BioTek, VT, USA) at wavelengths of 450 and 630 nm.

Another data set has as its system PNT1-A. The experiment in a line: WST-1 cytotoxicity assay, PNT1-A. The class given is cell-based. The settings on record: Homo sapiens, PNT1A. The protocol: We used cancer and normal cell lines purchased from ATCC (American Type Culture Collection) and ECACC (European Collection of Authenticated Cell Cultures) and stored in liquid nitrogen. HT-29 (ATCC: HTB-38, colon adenoma cancer), HeLa (ATCC: CCL-2, cervix adenoma cancer cell), MDA-MB-231 (ATCC: HTB-26, breast adenoma cancer cell), and HEK-293 (ATCC: CRL-1573, embryonic kidney epithelial cell) cell lines were incubated in DMEM-F12 (Sigma-Aldrich, Germany), including 10% Fetal Bovine Serum (FBS), 100 μg/mL streptomycin/100 IU/mL penicillin, at 37 °C in an incubator containing 5% CO2, 95% air in a humid atmosphere. PNT-1A (ECACC: 95012614, normal prostate cells) cell line was incubated in RPMI-1640 medium, including %10 FBS, 100 μg/mL streptomycin/100 IU/mL penicillin, at 37 °C in an incubator containing 5% CO2, 95% air in a humid atmosphere.
The cytotoxic effects of compound E were evaluated with WST kit (Roche, Basel, Switzerland) in accordance with manufacturer protocols. The cells were planted in 96 well plates (10^4 cells per well). After 24 h of incubation, compound E at doses of 0, 2.5, 5, 10, 25, 50, 100, and 200 μM was administrated on the cell lines for 24, 48, and 72 h, and 5-FU on the control cell line with the same doses. WST-1 reactive of 10 µL was added in all wells. Following 4 h incubation, the measurements were carried out in a plate reader (Spectramax M5, BioTek, VT, USA) at wavelengths of 450 and 630 nm. Consequently, graphs were created, and the IC50 values of compound E and 5-fluorouracil were calculated. Selectivity index (SI) can be defined as the ratio of the toxic concentration of a sample against its effective compound concentration.

Turning to `NS(=O)(=O)c1ccc(CCNCc2cc(Br)ccc2O)cc1` [Compound E, 4-(2-((5-bromo-2-hydroxybenzyl)amino)ethyl) benzenesulphonamide], the melting point is 189 to 191 °C. Also, the CAIX protein level result with HeLa cells [1] (25 µM) is “effective for inhibiton of CAIX protein”. Besides, in the data set with HeLa cells [1] (10 and 25 µM, vs WT), the “Cleaved PARP protein level” value is “increased PARP protein level”. In the data set with HeLa cells [1] (10–25–50 μM, vs WT), the “Cleaved caspase 3, 8, and 9 protein levels” value is recorded as “increased”; the “Pro-caspase 3 protein level” value is reported as “decreased”. Further, in the data set with HeLa cells [2], the “Mitochondrial membrane potential (MMP)” value is given as “disrupts mitochondrial membrane potential in HeLa cells”. For the same compound, in the data set on HeLa cells [3], the “Intracellular ROS level” value is reported as “amount of ROS increased in a manner dose-dependent”. Besides, the “Proliferation of HeLa cells (BrdU ELISA)” value in the data set on HeLa cells [4] is listed as “reduce the proliferation of HeLa cells in a dose-dependent manner”. The compound also came in with a half-maximal inhibitory concentration (IC50) in the data set on HeLa cells [5] (24 h) of 46.4 ± 4.3 µM. In the data set on HeLa cells [5] (48 h), this compound returned an IC50 of 86.8 ± 2.3 µM. Moreover, in the data set with HeLa cells [5] (72 h), it took 20.1 ± 4.2 µM to reach half-maximal inhibition (IC50). Moreover, in the data set with PNT1-A (24 h), the concentration for half-maximal inhibition (IC50) worked out at 214 ± 9.3 µM. Moreover, the IC50 in the data set with PNT1-A (48 h) is 167 ± 11.4 µM. In addition, the IC50 with PNT1-A (72 h) turned out to be 398 ± 10.4 µM.
